Measurements from ChEMBL document CHEMBL1135764, “Synthesis and evaluation of Glypsi(PO(2)R-N)Pro-containing pseudopeptides as novel inhibitors of the human cyclophilin hCyp-18” (J Med Chem, 2002).
The source made the active and inactive calls. The calls are words filed in the database; no cut-off is given here.

How the values were obtained:
[1] = tested on: cyclophilin A hCyp-18 (Homo sapiens); experiment: Inhibitory activity against Human Cyclophilin hCyp-18 Peptidyl-prolyl isomerase by using the standard uncoupled PPIase (peptidyl-prolyl isomerases) assay at a concentration of 500 uM
[2] = tested on: cyclophilin A hCyp-18 (Homo sapiens); experiment: Inhibitory activity against Human Cyclophilin hCyp-18 Peptidyl-prolyl isomerase by using the standard uncoupled PPIase (peptidyl-prolyl isomerases) assay at a concentration of 500 uM;NI-no inhibition
[3] = tested on: cyclophilin A hCyp-18 (Homo sapiens); experiment: Inhibitory activity against Human Cyclophilin hCyp-18 Peptidyl-prolyl isomerase by using the standard trypsin-coupled PPIase (peptidyl-prolyl isomerases) assay at a concentration of 100 uM

| Inhibition [1] [%] | NI [2] | Inhibition [3] [%] | Structure (SMILES) |
| --- | --- | --- | --- |
| 30 | inactive |  | CCOP(=O)(CNC(=O)[C@H](C)NC(C)=O)N1CCCC1C(=O)N[C@H](CNc1ccc([N+](=O)[O-])cc1)Cc1ccccc1 (stereo partly drawn) |
|  |  | 0 | COC(=O)Cc1ccc(NC(=O)[C@H](Cc2ccccc2)NC(=O)C2CCCN2P(=O)(O)CNC(=O)[C@H](C)NC(C)=O)cc1 (stereo partly drawn) |
